{"source": "patent US20080138280A1", "about": "“Composition and Methods For Inhibiting Cell Survival” (The Cleveland Clinic Foundation, priority 2003, published 2008)", "key": {"[1]": {"system": "phospho-IκBα in A375 cells", "assay": "Western blot analysis of IκBα phosphorylation", "type": "cell-based, human", "conditions": "pre-treatment 100 μM", "experimental": "Gel Electrophoresis and Immunoblot analyses. Please see FIG. 4. Whole cell lysates were prepared in 1× lysis buffer (50 mM Tris-Cl, pH 8.0, 1% Triton×100, 10% glycerol, 1 mM EDTA, 250 mM NaCl, 1 mM DTT, 1 mM PMSF, 10 μg/ml aprotinin, 10 μg/ml leupeptin, and 10 μg/ml pepstatin) for subsequent immunoblotting studies. The SDS-PAGE was conducted by using the Laemmli buffer system and 12% polyacrylamide gels. Proteins were transferred onto PVDF membranes by the semidry method (Trans Blot SD, BioRad, Hercules, Calif.). Binding of the primary and secondary antibodies was performed according to standard protocols. Membranes were immunoblotted with pAb to caspase-3, caspase-8, XIAP (BD-Pharmingen, San Diego, Calif.), PARP (BioMOL, Plymouth Meeting, Pa.), cIAP-1, FLIP, pIκBα and IκBα (Cell Signaling, Beverly, Mass.) followed by incubation with HRP conjugated secondary antibodies (Pierce, Rockford, Ill.). Immunoreactive bands were visualized by using enhanced chemiluminescence (Perkin Elmer, Boston, Mass.). Equal protein loading was confirmed by reprobing with monoclonal anti-actin antibody (Sigma Chemicals Co, St. Louis, Mo.). All immunoblots in this study were repeated 3 times with reproducible results.\nNO-Cbl treatment affected the phosphorylation state of IκBα, the prototypic inhibitor of NF-κB. Western blot analysis was performed to assess levels of phospho-IκBα and IκBα. FIG. 6 is a Western blot analysis of IκB levels and IκBα phosphorylation. IκBα and phospho-IκBα protein levels were determined in A375 whole cell lysates. […] NO-Cbl, NOC-18, and SNAP pre-treatment all inhibited Apo2L/TRAIL-induced IκBα phosphorylation."}, "[2]": {"system": "NF-κB-luciferase reporter in A375 cells", "assay": "Dual luciferase NF-κB reporter assay", "type": "cell-based, human", "experimental": "Dual Luciferase NF-κB Reporter Assay. Please see FIG. 6. The NP-κB-luciferase (NF-κB-luc) reporter plasmid, containing a 2×NF-κB response element fused to the luciferase, has been previously characterized. Renilla luciferase (pRL-TK, Promega, Madison, Wis.) vector was used to normalize for transfection efficiency. A375 cells were transfected with 20 μg NF-κB-luc and 10 μg PRL-TK using Lipofectamine plus (Gibco BRL/Life Technologies, Invitrogen Carlsbad, Calif.). After transfection cells were allowed to recover overnight and were plated in 6 well plates. […] Cells were then harvested in 1× passive lysis buffer and luciferase activity was measured according to the manufacturer's protocol (Promega, Madison, Wis.) using a Wallac 1420 multilabel counter (Perkin Elmer, Gaithersburg, Md.). The fold induction of NF-κB-luciferase for each treatment was based on untreated values normalized to the fold induction of pRL-TK reporter values. The assays were performed in triplicate.\nTransient transfection assays were performed to assess NF-κB transcriptional activity. A375 cells were co-transfected with a NF-κB-luciferase reporter (NF-κB-luc) and Renilla luciferase (to assess transfection efficiency). Cells were pre-treated with NO-Cbl (100 μM) for 16 h followed by treatment with Apo2L/TRAIL (100 ng/ml) or TNF-α (10 ng/ml) for 4 hours."}}}
{"substance": "nitrosylcobalamin [NO-Cbl]", "values": [{"measurement": "IκBα phosphorylation induced by Apo2L/TRAIL", "setting": "[1]; Apo2L/TRAIL 100 ng/ml", "result": "blocked"}, {"measurement": "IκBα phosphorylation induced by TNF-α", "setting": "[1]; TNF-α 20 ng/ml", "result": "blocked"}, {"measurement": "inhibition of NF-κB activity in response to Apo2L/TRAIL", "setting": "[2]; NO-Cbl 100 μM 16 h followed by Apo2L/TRAIL 100 ng/ml 4 hours", "result": 34, "unit": "%"}, {"measurement": "inhibition of NF-κB activity in response to TNF-α", "setting": "[2]; NO-Cbl 100 μM 16 h followed by TNF-α 10 ng/ml 4 hours", "result": 51, "unit": "%"}]}
